From patent publication US10294488B2, “Herbicide-metabolizing cytochrome P450 monooxygenases” (BASF SE, priority 2012, dated 2019)

Tests used:
AmCYP12_1 (Seq ID 45) = assay: Herbicide degradation in transgenic yeast cells expressing cytochrome P450 AmCYP12_1; type: in vitro ADME, Alopecurus myosuroides; conditions: transgenic yeast cells (S. cerevisiae BJ5459) expressing AmCYP12_1, Seq ID 45, recovery of herbicide in reference to control, UPLC-MS/MS
From the text: (§1) The cDNA of CYP450 monooxygenase genes were synthesized with an optimized codon usage for yeast, cloned via uniqueBamHI-SalI restriction sites in the low copy pESC-ura expression vector (Agilent Technologies). Constructs were transformed into S. cerevisiae wild type strain BJ5459 (MATa ura3-5 trp lys2-801 leu2Δ1 his3Δ200 pep4Δ::HIS3 prb1Δ1.6R can1 GAL cir^+; ATCC 208284) using a Yeast Maker Transformation System from Clontech and verified by colony PCR. Positive clones were selected on minimal synthetic-defined media (SD) supplemented with appropriate dropout solution. The strain had no obvious phenotypes. Cells were induced in SG-Ura medium (same composition as SD but with galactose instead of glucose) for 24 h (Pompon et al., Methods in Enzymology 272:51-64 (1996); Urban et al., Eur. J. Biochem. 222:[…] (1994)). Optimal heterologous protein expression was assayed using Western Blot analysis.
(§2) 96 deep well growth plates (STARLAB GmbH) charged with 700 μL SDA medium are inoculated with the respective yeast strains from cryostock and incubated at 30° C., 400 rpm. After 48 h, an aliquot is transferred into a new plate with fresh SDA medium 400 rpm. After 4 h the cultures are spun down, the supernatant discarded and the pellets resuspended in 700 μL pre-warmed SGA media to induce protein expression at 30° C. and 400 rpm. After an incubation time of 24 h, 7 μL herbicide solution (500 μM DMSO stock solution) or solvent control is added to the yeast culture incubated for additional 24 h. The herbicide conversion is stopped by adding 700 μL acetonitrile followed by ultrasonification. The homogenate is prepared for UPLC-MS/MS analysis. The degradation rate was calculated by the determination of the recovery of the herbicide in reference to the control.

AmCYP03_1 (Seq ID 4) = assay: Herbicide degradation in transgenic yeast cells expressing cytochrome P450 AmCYP03_1; type: in vitro ADME, Alopecurus myosuroides; conditions: transgenic yeast cells (S. cerevisiae BJ5459) expressing AmCYP03_1, Seq ID 4, recovery of herbicide in reference to control, UPLC-MS/MS
From the text: as §1, §2

AmCYP04 (Seq ID 27) = assay: Herbicide degradation in transgenic yeast cells expressing cytochrome P450 AmCYP04; type: in vitro ADME, Alopecurus myosuroides; conditions: transgenic yeast cells (S. cerevisiae BJ5459) expressing AmCYP04, Seq ID 27, recovery of herbicide in reference to control, UPLC-MS/MS
From the text: as §1, §2

AmCYP03b (Seq ID 6) = assay: Herbicide degradation in transgenic yeast cells expressing cytochrome P450 AmCYP03b; type: in vitro ADME, Alopecurus myosuroides; conditions: transgenic yeast cells (S. cerevisiae BJ5459) expressing AmCYP03b, recovery of herbicide in reference to control, UPLC-MS/MS
From the text: as §1, §2

AmCYP01 (Seq ID 2) = assay: Herbicide degradation in transgenic yeast cells expressing cytochrome P450 AmCYP01; type: in vitro ADME, Alopecurus myosuroides; conditions: transgenic yeast cells (S. cerevisiae BJ5459) expressing AmCYP01, Seq ID 2, recovery of herbicide in reference to control, UPLC-MS/MS
From the text: as §1, §2

[1] = system: transgenic plants expressing Am_CYP04 (SEQ ID 27); assay: Greenhouse herbicide tolerance of transgenic plants expressing Am_CYP04 (FIG. 2); type: in vivo, Arabidopsis thaliana; conditions: plants expressing Am_CYP04 (SEQ ID 27) vs wildtype, different application rates (g/ha)
Description: (§3) Transgenic Arabidopsis thaliana plants were assayed for improved tolerance to saflufenacil, 1,5-dimethyl-6-thioxo-3-(2,2,7-trifluoro-3-oxo-4-(prop-2-ynyl)-3,4-dihydro-2H-benzo[b][1,4]oxazin-6-yl)-1,3,5-triazinane-2,4-dione (CAS 1258836-72-4), chlorotoluron, pendimethalin, flumioxazin, butafenacil, acifluorfen, lactofen, bifenox, diuron, sulfentrazon, tepraloxydim, coumarone-derivative herbicides, azine-derivative herbicides in 48-well plates. Therefore, T2 seeds are surface sterilized by stirring for 5 min in ethanol+water (70+30 by volume), rinsing one time with ethanol+water (70+30 by volume) and two times with sterile, deionized water. The seeds are resuspended in 0.1% agar dissolved in water (w/v) Four to five seeds per well are plated on solid nutrient medium consisting of half-strength murashige skoog nutrient solution, pH 5.8 (Murashige and Skoog (1962) Physiologia Plantarum 15: 473-497). Compounds are dissolved in dimethylsulfoxid (DMSO) and added to the medium prior solidification (final DMSO concentration 0.1%). Multi well plates are incubated in a growth chamber at 22° C., 75% relative humidity and 110 μmol Phot*m^2*s^−1 with 14:10 h light: dark photoperiod. Growth inhibition is evaluated seven to ten days after seeding in comparison to wild type plants. Additionally, transgenic T1 Arabidopsis plants were tested for improved tolerance to herbicides in greenhouse studies with the following herbicides: saflufenacil, 1,5-dimethyl-6-thioxo-3-(2,2,7-trifluoro-3-oxo-4-(prop-2-ynyl)-3,4-dihydro-2H-benzo[b][1,4]oxazin-6-yl)-1,3,5-triazinane-2,4-dione (CAS 1258836-72-4), chlorotoluron, pendimethalin, flumioxazin, butafenacil, acifluorfen, lactofen, bifenox, diuron, sulfentrazone, tepraloxydim, coumarone-derivative herbicides, azine-derivative herbicides.

[2] = system: transgenic plants expressing Am_CYP03 (SEQ ID 4); assay: Greenhouse herbicide tolerance of transgenic plants expressing Am_CYP03 (FIG. 1); type: in vivo, Arabidopsis thaliana; conditions: plants expressing Am_CYP03 (SEQ ID 4) vs wildtype, different application rates (g/ha)
Description: as §3

| Compound | Degradation rate of listed herbicidal compounds within 24 h (AmCYP12_1 (Seq ID 45)) | Degradation rate of listed herbicidal compounds within 24 h (AmCYP03_1 (Seq ID 4)) | Degradation rate of listed herbicidal compounds within 24 h (AmCYP04 (Seq ID 27)) | Degradation rate of listed herbicidal compounds within 24 h (AmCYP03b (Seq ID 6)) | Degradation rate of listed herbicidal compounds within 24 h (AmCYP01 (Seq ID 2)) | Phenotype (injury) of transgenic plants compared to non-transgenic plants [1] | Phenotype (injury) of transgenic plants compared to non-transgenic plants [2] |
| --- | --- | --- | --- | --- | --- | --- | --- |
| O=S1(=O)Cc2cccnc2C(O)=C1c1ccccc1C(F)(F)F [Coumarone-derivative 3, 6,6-dioxo-7-[2-(trifluoromethyl)phenyl]-5H-thiopyrano[4,3-b]pyridin-8-ol] | 27 | 0 | 9 | 0 | 0 |  |  |
| CC1=NOC(c2c(Cl)ccc(C3=C(O)c4ncccc4C(C)(C)S3(=O)=O)c2Cl)C1 (stereo not shown) [Coumarone-derivative 6, 7-[2,4-dichloro-3-(3-methyl-4,5-dihydroisoxazol-5-yl)phenyl]-5,5-dimethyl-6,6-dioxo-thiopyrano[4,3-b]pyridin-8-ol] | 4 | 2 | 0 | 0 | 1 |  |  |
| C#CCN1C(=O)C(F)(F)Oc2cc(F)c(-n3c(=O)n(C)c(=S)n(C)c3=O)cc21 [1,5-dimethyl-6-thioxo-3-(2,2,7-trifluoro-3-oxo-4-(prop-2-ynyl)-3,4-dihydro-2H-benzo[b][1,4]oxazin-6-yl)-1,3,5-triazinane-2,4-dione, reference compound] | 20 | 23 | 24 | 21 | 17 | much less injured | much less injured |
| CCC(CC)Nc1c([N+](=O)[O-])cc(C)c(C)c1[N+](=O)[O-] [pendimethalin, reference compound] | 16 | 24 | 25 | 24 | 13 |  |  |
| Cc1c(Cl)ccc(Cl)c1C1=C(O)c2ncccc2C(C)(C)S1(=O)=O [Coumarone-derivative 11, 7-(3,6-dichloro-2-methyl-phenyl)-5,5-dimethyl-6,6-dioxo-thiopyrano[4,3-b]pyridin-8-ol] | 0 | 0 | 0 | 18 | 0 |  |  |
| O=S1(=O)Oc2cccnc2C(O)=C1c1c(Cl)cccc1C(F)(F)F [Coumarone-derivative 4, 3-[2-chloro-6-(trifluoromethyl)phenyl]-2,2-dioxo-oxathiino[5,6-b]pyridin-4-ol] | 4 | 4 | 12 | 7 | 0 |  |  |
| O=S1(=O)C(c2c(Cl)cc(Cl)nc2Cl)=C(O)c2ncccc2N1CC(F)F [Coumarone-derivative 1, 1-(2,2-difluoroethyl)-2,2-dioxo-3-(2,4,6-trichloro-3-pyridyl)pyrido[3,2-c]thiazin-4-ol] | 10 | 25 | 31 | 18 | 0 |  |  |
| O=S1(=O)C(c2c(Cl)cc(Cl)nc2Cl)=C(O)c2ncccc2N1CC(F)F [Coumarone-derivative 9, 1-(2,2-difluoroethyl)-2,2-dioxo-3-(2,4,6-trichloro-3-pyridyl)pyrido[3,2-c]thiazin-4-ol] | 0 | 12 | 18 | 5 | 0 |  |  |
| COc1ccc(C2=C(O)c3ncccc3C(C)(C)S2(=O)=O)c(C(F)(F)F)n1 [Coumarone-derivative 8, 7-[6-methoxy-2-(trifluoromethyl)-3-pyridyl]-5,5-dimethyl-6,6-dioxo-thiopyrano[4,3-b]pyridin-8-ol] | 3 | 10 | 0 | 0 | 0 |  |  |
| CN(c1c(Cl)ccc(C2=C(O)c3ncccc3C(C)(C)S2(=O)=O)c1Cl)S(C)(=O)=O [Coumarone-derivative 10, N-[2,6-dichloro-3-(8-hydroxy-5,5-dimethyl-6,6-dioxo-thiopyrano[4,3-b]pyridin-7-yl)phenyl]-N-methyl-methanesulfonamide] | 0 | 15 | 19 | 9 | 0 |  |  |
| N#Cc1ccc(C2=C(O)c3ncccc3N(CC(F)F)S2(=O)=O)c(C(F)(F)F)c1 [Coumarone-derivative 2, 4-[1-(2,2-difluoroethyl)-4-hydroxy-2,2-dioxo-pyrido[3,2-c]thiazin-3-yl]-3-(trifluoromethyl)benzonitrile] | 24 | 16 | 0 | 7 | 0 |  |  |
| COCCOCc1c(Cl)ccc(C2=C(O)c3ncccc3C(C)(C)S2(=O)=O)c1Cl [Coumarone-derivative 7, 7-[2,4-dichloro-3-(2-methoxyethoxymethyl)phenyl]-5,5-dimethyl-6,6-dioxo-thiopyrano[4,3-b]pyridin-8-ol] | 5 | 14 | 7 | 6 | 0 |  |  |
| CC1(C)c2cccnc2C(O)=C(c2ccc(Cl)nc2Cl)S1(=O)=O [Coumarone-derivative 5, 7-(2,6-dichloro-3-pyridyl)-5,5-dimethyl-6,6-dioxo-thiopyrano[4,3-b]pyridin-8-ol] | 15 | 2 | 22 | 17 | 14 |  |  |
